Data reported in patent US10266569B2 (priority 2014, dated 2019).
Entries after “also recorded” stand apart in the source; their conditions may differ.

Tests used:
[1] = system: CDV; format: cell-based, canine distemper virus
[2] = system: NiV (Malaysian isolate UMMC1); format: cell-based, Nipah virus
[3] = system: NiV (Malaysian isolate UMMC1); format: cell-based, Nipah virus; remark: listed apart in the source
[4] = target: NiV N (Nipah virus, UniProt Q9IK92); format: cell-based
Sequence of NiV N (Q9IK92 whole entry, looked up): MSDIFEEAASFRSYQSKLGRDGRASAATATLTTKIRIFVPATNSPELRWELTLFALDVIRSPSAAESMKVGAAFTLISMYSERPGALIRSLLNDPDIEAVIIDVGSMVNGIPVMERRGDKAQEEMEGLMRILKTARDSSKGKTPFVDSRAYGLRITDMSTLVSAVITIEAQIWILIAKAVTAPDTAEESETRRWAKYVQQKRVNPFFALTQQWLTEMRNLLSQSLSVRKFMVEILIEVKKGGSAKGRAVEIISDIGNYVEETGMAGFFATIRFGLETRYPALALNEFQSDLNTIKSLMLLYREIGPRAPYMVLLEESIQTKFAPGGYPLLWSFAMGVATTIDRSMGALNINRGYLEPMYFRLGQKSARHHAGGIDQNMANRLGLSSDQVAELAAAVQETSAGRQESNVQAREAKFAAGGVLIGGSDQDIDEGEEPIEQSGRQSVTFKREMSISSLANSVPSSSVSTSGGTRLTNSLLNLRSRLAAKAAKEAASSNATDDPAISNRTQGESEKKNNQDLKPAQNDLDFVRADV

Sequence	dose dependence of inhibition of CDV replication [1]	inhibition of NiV viral growth (virus titer in culture supernatant) [2]	inhibition of CDV viral growth (virus titer in culture supernatant) [1]	inhibition of NiV viral growth (viral titer in culture supernatant) [3]	syncytia formation in NiV-infected cells [3]	colocalization with N in the cell [4]	maintenance of N in a soluble form [4]
MAEEQAYHVSKGLECLKALRENPPDIEEIQEVSSLRDQTC [P40-CDV]	dose-dependant						
MDKLELVNDGLNIIDFIQKNQKEIQKTYGRSSIQQPSIKD [P40]	dose-dependant	inhibit viral growth	inhibit viral growth	significantly inhibits viral growth in a dose-dependent manner; also recorded: inhibited viral replication; also recorded: able to inhibit the replication of Nipah virus	abolishes syncytia formation	colocalization of N with P40	sufficient to maintain N in a soluble form
